Test results taken from paper PMC6327999, “Hydroxyl-substituted double Schiff-base condensed 4-piperidone/cyclohexanones as potential anticancer agents with biological evaluation” (Journal of Enzyme Inhibition and Medicinal Chemistry, 2019).

Legend:
[1] = test system: human cervical carcinoma cells (HeLa); test: Cytotoxicity, MTT assay, HeLa; assay type: cell-based; conditions: for IC50: Homo sapiens, HeLa, MTT, 24 hours; for HeLa SI: quotient of the IC50 values towards nonmalignant LO2 cells
Text: (§1) Compounds 2a–d, 3a–e, 4a–e, 5a–d, and 6a–c were screened against human neoplastic cell lines such as human lung carcinoma cells (A549), human gastric adenocarcinoma cells (SGC7901), human cervical carcinoma cells (HeLa), human liver hepatocellular carcinoma cell line (Hepg2), human chronic myelogenous leukemia cell line (K562), human acute mononuclear granulocyte leukemia (THP-1), human normal heptical cell line (LO2) (Table 1) using modified MTT assay (3-(4,5-dimethyl-2-thiazolyl)-2,5-diphenyl-2-H-tetrazolium bromide, MTT, Dojindo Laboratories, Tokyo, Japan). All cell lines were maintained at 37 °C in a humidified 5% CO2 and 95% air atmosphere. The HePG2 cell lines were cultured in DMEM containing 10% fetal bovine serum. Other cell lines were grown in medium 1640 and supplemented with 10% fetal bovine serum. […] Controls were prepared with 0.1% DMSO (v/v) only. The cells were seeded in a 96-well plate in 200 µL medium per well at a density of 1 × 10^4 cells/well for 24 hours. The cells were treated with serial concentrations of compound and incubated for 24 hours. Cells with only culture media were used as control. After the media was removed, 20 µL of MTT (5 mg/mL) was added then the plates were incubated for 4 hours at 37 °C in cell culture incubator. The MTT containing media were removed and then 150 µL of DMSO was added to dissolve the dark-blue formazan crystals. The optical density (OD) was measured by a multi-well plate reader (TECAN, Männedorf, Switzerland) at 570 nm. The results are expressed as a decrease in the cell viability (%) in comparison to untreated controls. The concentration of each compound was examined in triplicate, and the IC50 values are expressed in Table 1. The concentrations of the compounds were 50, 20, 10, 5, 2.5, 1, 0.5, 0.1, 0.05 and 0.01 µg/mL. Doxorubicin (DOX) and Curcumin were used as positive controls. […] The concentrations of curcumin used were 100, 50, 25, 12.5, 6.25, 3.125, 1, 0.5 and 0.1 µg/mL.

[2] = test system: human carcinoma cell lines A549, SGC7901, HePG2, HeLa, K562, THP-1; test: Cytotoxicity, MTT assay, panel of human carcinoma cell lines (average / overall); assay type: cell-based; conditions: average over the six carcinoma cell lines; for IC50: Homo sapiens, read-out: Ave IC50
Text: as §1
The cytotoxicity activities against human carcinoma cell lines A549, SGC7901, HePG2, HeLa, K562, THP-1 and cytotoxicity toward LO2 cell lines were evaluated by MTT method. DOX and curcumin were used as positive control. The selectivity index (SI) is the quotient of the IC50 values towards nonmalignant LO2 cells. […] Especially for 4a–e, 5a–d, and 6a–c, this ratio can reach about 92%.

[3] = test system: human acute mononuclear granulocyte leukemia (THP-1); test: Cytotoxicity, MTT assay, THP-1; assay type: cell-based; conditions: for IC50: Homo sapiens, THP-1, MTT, 24 hours; for THP-1 SI: quotient of the IC50 values towards nonmalignant LO2 cells
Text: as §1

[4] = test system: human liver hepatocellular carcinoma cell line (Hepg2); test: Cytotoxicity, MTT assay, HePG2; assay type: cell-based; conditions: for IC50: Homo sapiens, HepG2, MTT, 24 hours; for HePG2 SI: quotient of the IC50 values towards nonmalignant LO2 cells
Text: as §1, with “µg/mL.” for “µg/mL. Doxorubicin (DOX) and Curcumin were used as positive controls.”

[5] = test system: human lung carcinoma cells (A549); test: Cytotoxicity, MTT assay, A549; assay type: cell-based; conditions: for IC50: Homo sapiens, A549, MTT, 24 hours; for A549 SI: quotient of the IC50 values towards nonmalignant LO2 cells
Text: as §1

[6] = test system: human normal heptical cell line (LO2); test: Cytotoxicity, MTT assay, non-malignant LO2; assay type: cell-based; conditions: 24 hours, non-malignant cells
Text: as §1

[7] = test system: human gastric adenocarcinoma cells (SGC7901); test: Cytotoxicity, MTT assay, SGC7901; assay type: cell-based; conditions: for IC50: Homo sapiens, SGC-7901, MTT, 24 hours; for SGC7901 SI: quotient of the IC50 values towards nonmalignant LO2 cells
Text: as §1

[8] = test system: human chronic myelogenous leukemia cell line (K562); test: Cytotoxicity, MTT assay, K562; assay type: cell-based; conditions: for IC50: Homo sapiens, K562, MTT, 24 hours; for K562 SI: quotient of the IC50 values towards nonmalignant LO2 cells
Text: as §1

[9] = test system: HepG2 xenografts; test: In vivo antitumor efficacy, HepG2-bearing nude mice; parameters: species or system Balb/c nude mice; conditions: DOX 1.0 mg/kg every two days for 20 days
Experimental: The antitumor effect was investigated on the seven-week-old female Balb/c nude mice (n = 30) weighing 19–21 grams (Shanghai Laboratory Animal Center). Briefly, 0.2 mL HepG2 cells (1 × 10^7/mL) were inoculated subcutaneously into the alar left of each mouse. On the third day after the inoculation, the HepG2-bearing mice were randomly divided into five groups (n = 6/group) and administrated the according drug or solvent. […] The control group was administrated of saline as negative control. The body weight and tumor volumes calculation were recorded from the day of treatment, and the tumor volumes were calculated using the following equation: tumor volume = length × (width)^2 × π/6. Animal experiments were reviewed and approved by the Binzhou Medical University Experimental Animal Committee.

## COc1ccc(/C=N/c2cccc(/C=C3\CN(C)C/C(=C\c4cccc(/N=C/c5ccc(OC)cc5O)c4)C3=O)c2)c(O)c1 [4d]
[1]
  IC50: 4100 ± 100 nM
  HeLa SI: 2.8
[2]
  IC50: 2200 nM
  Ave SI: 6.9
[3]
  IC50: 1000 ± 30 nM
  THP-1 SI: 12.3
[4]
  IC50: 1110 ± 100 nM
  HePG2 SI: 10.6
[5]
  IC50: 2600 ± 500 nM
  A549 SI: 4.4
[6]
  IC50: 11.7 ± 0.1 µM
[7]
  IC50: 2300 ± 100 nM
  SGC7901 SI: 5.1
[8]
  IC50: 2000 ± 20 nM
  K562 SI: 6.0

## COc1cc(Br)cc(/C=N/c2cccc(/C=C3\CN(C)C/C(=C\c4cccc(/N=C/c5cc(Br)cc(OC)c5O)c4)C3=O)c2)c1O [4e]
[1]
  IC50: 2600 ± 100 nM
  HeLa SI: 4.2
[2]
  IC50: 1700 nM
  Ave SI: 7.2
[3]
  IC50: 900 ± 100 nM
  THP-1 SI: 11.8
[4]
  IC50: 1270 ± 20 nM
  HePG2 SI: 8.6
[5]
  IC50: 1500 ± 300 nM
  A549 SI: 7.2
[6]
  IC50: 10.9 ± 0.2 µM
[7]
  IC50: 2000 ± 300 nM
  SGC7901 SI: 5.4
[8]
  IC50: 1800 ± 10 nM
  K562 SI: 5.9

## O=C1/C(=C/c2cc(/N=C/c3cccc(O)c3O)ccc2F)CNC/C1=C\c1cc(/N=C/c2cccc(O)c2O)ccc1F [5a]
[1]
  IC50: 1100 ± 400 nM
  HeLa SI: 15.0
[2]
  IC50: 1600 nM
  Ave SI: 12.1
[3]
  IC50: 1000 ± 300 nM
  THP-1 SI: 18.5
[4]
  IC50: 1800 ± 50 nM
  HePG2 SI: 9.7
[5]
  IC50: 2800 ± 200 nM
  A549 SI: 6.4
[6]
  IC50: 17.6 ± 1 µM
[7]
  IC50: 1600 ± 100 nM
  SGC7901 SI: 11.2
[8]
  IC50: 1500 ± 100 nM
  K562 SI: 11.7

## O=C1/C(=C/c2cc(/N=C/c3cc(O)ccc3O)ccc2F)CNC/C1=C\c1cc(/N=C/c2cc(O)ccc2O)ccc1F [5b]
[1]
  IC50: 4200 ± 500 nM
  HeLa SI: 3.4
[2]
  IC50: 3300 nM
  Ave SI: 5.4
[3]
  IC50: 2200 ± 100 nM
  THP-1 SI: 6.4
[4]
  IC50: 3300 ± 200 nM
  HePG2 SI: 4.3
[5]
  IC50: 3000 ± 100 nM
  A549 SI: 4.8
[6]
  IC50: 14.1 ± 1 µM
[7]
  IC50: 1300 ± 200 nM
  SGC7901 SI: 10.9
[8]
  IC50: 5700 ± 400 nM
  K562 SI: 2.5

## COc1ccc(/C=N/c2ccc(F)c(/C=C3\CNC/C(=C\c4cc(/N=C/c5ccc(OC)cc5O)ccc4F)C3=O)c2)c(O)c1 [5d]
[1]
  IC50: 3800 ± 200 nM
  HeLa SI: 3.8
[2]
  IC50: 2400 nM
  Ave SI: 6.7
[3]
  IC50: 2100 ± 200 nM
  THP-1 SI: 6.8
[4]
  IC50: 2700 ± 200 nM
  HePG2 SI: 5.6
[5]
  IC50: 2500 ± 100 nM
  A549 SI: 5.8
[6]
  IC50: 14.6 ± 1.26 µM
[7]
  IC50: 1800 ± 100 nM
  SGC7901 SI: 8.3
[8]
  IC50: 1500 ± 100 nM
  K562 SI: 9.7

## CN1C/C(=C\c2cc(/N=C/c3cccc(O)c3O)ccc2F)C(=O)/C(=C/c2cc(/N=C/c3cccc(O)c3O)ccc2F)C1 [6a]
[1]
  IC50: 2200 ± 200 nM
  HeLa SI: 9.9
[2]
  IC50: 2200 nM
  Ave SI: 10.2
[3]
  IC50: 1500 ± 200 nM
  THP-1 SI: 14.2
[4]
  IC50: 2600 ± 100 nM
  HePG2 SI: 8.4
[5]
  IC50: 1900 ± 100 nM
  A549 SI: 11.6
[6]
  IC50: 21.7 ± 2 µM
[7]
  IC50: 2400 ± 100 nM
  SGC7901 SI: 9.2
[8]
  IC50: 2800 ± 200 nM
  K562 SI: 7.7

## CN1C/C(=C\c2cc(/N=C/c3cc(O)ccc3O)ccc2F)C(=O)/C(=C/c2cc(/N=C/c3cc(O)ccc3O)ccc2F)C1 [6b]
[1]
  IC50: 3400 ± 400 nM
  HeLa SI: 6.2
[2]
  IC50: 3000 nM
  Ave SI: 7.9
[3]
  IC50: 1800 ± 100 nM
  THP-1 SI: 12.0
[4]
  IC50: 2700 ± 200 nM
  HePG2 SI: 7.8
[5]
  IC50: 2300 ± 100 nM
  A549 SI: 9.1
[6]
  IC50: 21.3 ± 2 µM
[7]
  IC50: 2600 ± 100 nM
  SGC7901 SI: 8.3
[8]
  IC50: 5100 ± 300 nM
  K562 SI: 4.2

## CN1C/C(=C\c2cc(/N=C/c3ccc(O)c(O)c3O)ccc2F)C(=O)/C(=C/c2cc(/N=C/c3ccc(O)c(O)c3O)ccc2F)C1 [6c]
[1]
  IC50: 2500 ± 100 nM
  HeLa SI: 7.5
[2]
  IC50: 2000 nM
  Ave SI: 9.5
[3]
  IC50: 1600 ± 100 nM
  THP-1 SI: 11.4
[4]
  IC50: 2600 ± 200 nM
  HePG2 SI: 7.1
[5]
  IC50: 1500 ± 200 nM
  A549 SI: 12.5
[6]
  IC50: 18.4 ± 1 µM
[7]
  IC50: 2000 ± 200 nM
  SGC7901 SI: 9.3
[8]
  IC50: 1900 ± 200 nM
  K562 SI: 9.5

## COc1cc(/C=C/C(=O)CC(=O)/C=C/c2ccc(O)c(OC)c2)ccc1O [Curcumin, reference compound]
[1]
  IC50: 23800 ± 1300 nM
  HeLa SI: 1.2
[2]
  IC50: 20800 nM
  Ave SI: 1.4
[3]
  IC50: 21700 ± 400 nM
  THP-1 SI: 1.3
[4]
  IC50: 16000 ± 200 nM
  HePG2 SI: 1.7
[5]
  IC50: 19400 ± 200 nM
  A549 SI: 1.4
[6]
  IC50: 27.5 ± 0.4 µM
[7]
  IC50: 21500 ± 300 nM
  SGC7901 SI: 1.3
[8]
  IC50: 22100 ± 800 nM
  K562 SI: 1.2

## COc1cccc2c1C(=O)c1c(O)c3c(c(O)c1C2=O)C[C@@](O)(C(=O)CO)C[C@@H]3O[C@H]1C[C@H](N)[C@H](O)[C@H](C)O1 [DOX, Doxorubicin, reference compound]
[1]
  IC50: 2100 ± 300 nM
[2]
  IC50: 2600 nM
[3]
  IC50: 500 ± 200 nM
[4]
  IC50: 600 ± 100 nM
[5]
  IC50: 3800 ± 100 nM
[6]
  IC50: 6.1 ± 0.5 µM
[7]
  IC50: 7000 ± 400 nM
[8]
  IC50: 1600 ± 200 nM
[9]
  tumor growth inhibition: suppressed significantly
